Values quoted from earlier work as cited in US6953790B2, “CGRP receptor antagonists” (Merck & Co., Inc., priority 2003, dated 2005).
No end group written: not given here.

Key:
facial blood flow [1] = conditions: marmoset, electrical stimulation of the trigeminal ganglion (Doods et al. 2000)
CGRP receptor = target: T1, CGRP receptor (Homo sapiens, UniProt O60894+Q16602); conditions: clinical trials (Olesen et al. 2004)
T1 construct: host or cells: human migraine patients (in vivo)

facial blood flow [2] = conditions: rat, trigeminal ganglion stimulation (Escott et al. 1995)
middle meningeal artery = conditions: rats, electrical stimulation of the dura mater, prior administration (Williamson et al. 1997)

T1 sequence (Q16602 23-461): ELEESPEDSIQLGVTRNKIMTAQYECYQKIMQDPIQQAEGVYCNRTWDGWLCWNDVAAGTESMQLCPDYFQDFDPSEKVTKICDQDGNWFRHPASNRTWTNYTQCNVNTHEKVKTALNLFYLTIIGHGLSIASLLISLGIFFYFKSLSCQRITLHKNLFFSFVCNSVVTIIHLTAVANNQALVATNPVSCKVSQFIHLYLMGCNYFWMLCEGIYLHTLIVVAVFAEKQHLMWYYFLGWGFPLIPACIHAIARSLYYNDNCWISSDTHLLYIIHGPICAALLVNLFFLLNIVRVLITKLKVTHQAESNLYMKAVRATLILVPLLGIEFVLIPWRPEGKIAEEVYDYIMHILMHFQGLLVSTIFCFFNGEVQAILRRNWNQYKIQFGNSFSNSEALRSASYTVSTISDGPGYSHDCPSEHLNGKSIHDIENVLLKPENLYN
T1 sequence (O60894 27-148): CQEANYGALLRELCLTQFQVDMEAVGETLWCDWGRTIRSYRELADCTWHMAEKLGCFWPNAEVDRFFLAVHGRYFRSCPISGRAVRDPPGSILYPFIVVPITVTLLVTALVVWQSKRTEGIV

Compound	effect on increase in facial blood flow (facial blood flow [1])	efficacy in acute attacks of migraine (CGRP receptor)	effect on increased facial blood flow (facial blood flow [2])	effect on increase in diameter of the middle meningeal artery (middle meningeal artery)
NCCCC[C@H](NC(=O)[C@@H](Cc1cc(Br)c(O)c(Br)c1)NC(=O)N1CCC(N2Cc3ccccc3NC2=O)CC1)C(=O)N1CCN(c2ccncc2)CC1 [BIBN4096BS]	blocked	effective in treating acute attacks of migraine	–	–
CGRP(8-37): "a peptide CGRP antagonist" (VTHRLAGLLSRSGGVVKNNFVPTNVGSKAF; ends and bridges not checked; UniProt P06881 90-119, looked up, fragment)	–	–	inhibited	blocked
